Experimental data taken from patent US4448729A, “Leucotriene antagonists” (American Home Products Corporation, priority 1982, dated 1984).
Counter-ions that a name gives are not always drawn. Like-named read-outs stand apart in the source and are kept apart here.

Experiments:
[1] = tested on: sensitized guinea pig trachea; assay: Schultz-Dale reaction, sensitized guinea pig trachea (tracheal spirals), ovalbumin challenge; format: cell-based; details: Cavia porcellus; for inhibition at 10 µM: 10^-5 M; for inhibition at 1 µM: 10^-6 M
Experimental: The antiallergy activity of the compounds of this invention was established by the Schultz-Dale reaction employing sensitized guinea pig trachea by the following procedure:
(§1) Guinea pigs weighing from about 275 to 325 g. are sensitized to ovalbumin. Three to four weeks later, tracheae are removed under CO2 anesthesia. Excess tissue is removed and each trachea is spirally cut and suspended under 6 g. tension in a tissue bath (37° C.) containing modified Tyrode's solution (pH 7.4) oxygenated with a 95 percent O2 -5 percent CO2 gas mixture. The Tyrodes composition (mmol) is: NaCl, 139.2; KCl, 2.7; MgSO4.7H2 O, 0.49; NaHCO3, 11.9; NaH2 PO4.H2 O, 0.4; CaCl2.2H2 O, 1.8 and glucose, 5.5. Tracheae are allowed to equilibrate for 90 minutes before exposure to agonists or drugs.
A response to histamine is elicited at two bath concentrations (1×10^-6 M and 1×10^-4 M). The lower concentration primes the tissue and is allowed a 5 minute contact period. The higher concentration (10 minute exposure) produces a maximal response for the tissue. In each case, the bath fluid is replaced and the tissue is washed two times with fresh Tyrode solution. Compounds tested are introduced into the bath to produce a 10^-4 M concentration twenty minutes after the second histamine treatment (subsequent testing at 10^-5 and 10^-6 M bath concentrations are employed in dose-response analyses). Ovalbumin (8 μg/ml) is introduced into the bath ten minutes later.
The contracture curve following antigen challenge is compared with the maximal histamine response at 10 minute time intervals up to 90 minutes and the responses are expressed as percentage inhibition. The area under the curve is calculated for each time period. […] The EC50 is calculated from the area under the curve values at 90 minutes to define the effective concentration of test compound which produces a 50 percent reduction in area under the curve compared to control tissues.

[2] = tested on: guinea pig lung parenchyma strips; assay: Schultz-Dale reaction, guinea pig lung parenchyma strips, ovalbumin challenge; format: cell-based; details: Cavia porcellus, 1 h, at 60 minutes, read-out: Parenchymal Strips % Inhibition at 60 minutes; for inhibition at 100 µM: 10^-4 M
Experimental: as §1
Following the same basic procedure, guinea pig lung parenchyma strips (25×3×3 mm) dissected along the distal edges of two different lobes are suspended under 1 g. tension in the tissue bath. Equilibration in the Tyrode solution is conducted for 45 minutes with complete solution changes at 15 minute intervals. Maximal contraction induced with histamine (50 μM) primes the tissue. Five minutes later, the bath fluid is exchanged two times and the tissues are allowed to equilibrate 15 minutes longer. The test compound is then introduced into the bath to give a 10^-4 M solution. Five minutes later the ovalbumin challenge (8 μg/ml) is given. The data is collected at ten minute intervals up to 60 minutes and analysed as with the guinea pig trachea technique.

[3] = target: T1, (Cavia porcellus, UniProt Q2NNR5); assay: Schultz-Dale reaction, guinea pig ileal tissue, inhibition of leucotriene D4; format: cell-based; details: Schultz-Dale reaction employing guinea pig ileal tissue; read-out: pA2 as inhibitor of leucotriene D4 (converted)
T1 construct: employing guinea pig ileal tissue; from tissue; host or cells: guinea pig ileum
T1 sequence (Q2NNR5 1-340): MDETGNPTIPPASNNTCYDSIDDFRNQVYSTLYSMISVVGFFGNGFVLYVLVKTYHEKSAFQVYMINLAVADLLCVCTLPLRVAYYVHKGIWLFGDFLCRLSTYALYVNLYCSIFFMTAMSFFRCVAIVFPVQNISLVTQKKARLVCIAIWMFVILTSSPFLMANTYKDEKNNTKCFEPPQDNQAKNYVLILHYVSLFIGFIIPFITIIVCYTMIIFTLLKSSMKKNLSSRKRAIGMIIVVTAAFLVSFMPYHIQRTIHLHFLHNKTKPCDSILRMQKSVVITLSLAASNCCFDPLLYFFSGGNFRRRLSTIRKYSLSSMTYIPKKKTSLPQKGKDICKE

[4] = tested on: anaphylactic tissue response; assay: anaphylactic tissue response / leucotriene activity of nitro substituted compounds; format: cell-based
SRS-A = details: J.Med.Chem. 20 371 (1977); cited from earlier work
[5] = 1.5 h, 10^-4 M, at 90 minutes, read-out: Tracheal Spirals % Inhibition at 90 minutes
[6] = 1.5 h, 50 percent reduction in area under the curve at 90 minutes, read-out: Tracheal Spirals EC50

Compound	inhibition at 100 µM [1, 5]	inhibition at 10 µM ([1]; 1.5 h, at 90 minutes)	inhibition at 1 µM ([1]; 1.5 h, at 90 minutes)	EC50 [1, 6]	other results
CCCc1c(OCC(O)CNc2cccc(NC(=O)C(=O)OCC)c2C#N)ccc(C(C)=O)c1O (centres unmarked) [Example 7, [[[3-[3-(4-acetyl-3-hydroxy-2-propylphenoxy)-2-hydroxypropyl]amino]-2-cyanophenyl]amino]oxoacetic acid ethyl ester]	63.8%	39.3%	2.64%	30 µM	
CCCc1c(OCC(O)CNc2cccc(NC(=O)C(=O)O)c2C#N)ccc(C(C)=O)c1O (centres unmarked) [Example 8, [[[3-[3-(4-Acetyl-3-hydroxy-2-propylphenoxy)-2-hydroxypropyl]amino]-2-cyanophenyl]amino]oxoacetic acid sodium salt]	63.5%	37.5%	28.4%	25 µM	
CCCc1c(OCC(O)COc2cccc(NC(=O)C(=O)OCC)c2C#N)ccc(C(C)=O)c1O (centres unmarked) [Example 2, [[3-[3-(4-Acetyl-3-hydroxy-2-propylphenoxy)-2-hydroxypropoxy]-2-cyanophenyl]amino]oxoacetic acid ethyl ester]	73%	63%	18.8%	8.7 µM	inhibition at 100 µM [2]: 65.5%; inhibition at 10 µM ([2]; 10^-5 M): 2.09%; Kb [3]: 0.000398 µM
CC(=O)c1ccc(OCC(O)COc2cccc([N+](=O)[O-])c2)cc1O (centres unmarked) [Example 10, 1-[2-Hydroxy-4-[2-hydroxy-3-(3-nitrophenoxy)propoxy]phenyl]ethanone]					inhibition at 100 µM ([1]; 10^-4 M concentration, sensitized guinea pig trachea, read-out: percent inhibition in the Schultz-Dale reaction): 62%; EC50 ([1]; sensitized guinea pig trachea, read-out: EC50 in the Schultz-Dale reaction): 76 µM
CCCc1c(OCC(O)CNc2cccc([N+](=O)[O-])c2C#N)ccc(C(C)=O)c1O (centres unmarked) [2-[[3-(4-acetyl-3-hydroxy-2-propylphenoxy)-2-hydroxypropyl]amino]-6-nitrobenzonitrile]					effect on anaphylactic tissue response [4]: potentiator of the anaphylactic tissue response
CCCc1c(OCC(O)CNc2cccc(N)c2C#N)ccc(C(C)=O)c1O (centres unmarked) [Example 6, 2-Amino-6-[[3-(4-acetyl-3-hydroxy-2-propylphenoxy)-2-hydroxypropyl]amino]benzonitrile]	38.8%				
CCCc1c(OCC(O)COc2cccc(N)c2C#N)ccc(C(C)=O)c1O (centres unmarked) [Example 1, 2-[3-(4-Acetyl-3-hydroxy-2-propylphenoxy)-2-hydroxypropoxy]-6-aminobenzonitrile]	64.2%	45.7%	20.6%	20 µM	
CCCc1c(OCC(O)COc2ccc3c(=O)cc(C(=O)[O-])oc3c2CCC)ccc(C(C)=O)c1O.[Na+] (centres unmarked) [FPL 55712, sodium 7-[3-(4-acetyl-3-hydroxy-2-propylphenoxy)-2-hydroxypropoxy]-4-oxo-8-propyl-4H-1-benzopyran-2-carboxylate]					antagonism of SRS-A (SRS-A): specific antagonist of SRS-A
CCCc1c(OCC(O)CNc2cccc(N)c2C(N)=O)ccc(C(C)=O)c1O (centres unmarked) [Example 9, 2-[3-(4-Acetyl-3-hydroxy-2-propylphenoxy)-2-hydroxypropyl]amino-6-aminobenzamide]	40.7%				
CCCc1c(OCC(O)COc2cccc(NC(=O)C(=O)O)c2C#N)ccc(C(C)=O)c1O (centres unmarked) [Example 3, [[3-[-(4-Acetyl-3-hydroxy-2-propylphenoxy)-2-hydroxypropoxy]-2-cyanophenyl]amino]oxoacetic acid sodium salt]	62.1%	21.5%	12.8%	53 µM	inhibition at 100 µM [2]: 22.9%
CCCc1c(OCC(O)COc2cccc(NC(=O)C(=O)OCC)c2)ccc(C(C)=O)c1O (centres unmarked) [Example 5, [[3-[3-(4-Acetyl-3-hydroxy-2-propylphenoxy)-2-hydroxypropoxy]phenyl]amino]oxoacetic acid ethyl ester]	53%	22.8%	8.57%	97 µM	
CCCc1c(OCC(O)COc2cccc(N)c2)ccc(C(C)=O)c1O (centres unmarked) [Example 4, 1-[2-Hydroxy-3-propyl-4-[2-hydroxy-3-(3-aminophenoxy)propoxy]phenyl]ethanone]	76.2%	9.07%	4.98%	36 µM	
